In the NIST ThermoML archive (doi:10.1016/j.jct.2005.09.003):

Key:
[1] = Liquid
[2] = refractive index (Na D-line) (dimensionless); details: 298.15 K; 101.33 kPa; Liquid; Standard Abbe refractometry

CCCCCCCl [1-chlorohexane]
mass density [kg/m3], [1]
Details | 298.15 K | 308.15 K | 318.15 K | 328.15 K
100 kPa | 873.42 | 863.99 | 854.58 | 845.18
2130 kPa | 874.73 | 865.56 | 856.27 | 847.12
4150 kPa | 876.45 | 867.35 | 858.19 | 849.17
6180 kPa | 878.31 | 869.15 | 860.06 | 851.16
8210 kPa | 879.79 | 870.9 | 861.91 | 853.13
10230 kPa | 881.44 | 872.61 | 863.73 | 855.02
11250 kPa | 882.22 | 873.47 | 864.62 | 855.98
12260 kPa | 883.01 | 874.3 | 865.5 | 856.91
14290 kPa | 884.61 | 875.96 | 867.28 | 858.76
16310 kPa | 886.16 | 877.59 | 869 | 860.59
18340 kPa | 887.68 | 879.2 | 870.66 | 862.35
20370 kPa | 889.18 | 880.78 | 872.33 | 864.12
22390 kPa | 890.65 | 882.35 | 873.95 | 865.82
24420 kPa | 892.14 | 883.86 | 875.54 | 867.51
26450 kPa | 893.54 | 885.35 | 877.12 | 869.18
28470 kPa | 894.96 | 886.84 | 878.67 | 870.8
29490 kPa | 895.65 | 887.56 | 879.43 | 871.6
30500 kPa | 896.32 | 888.21 | 880.19 | 872.4
32530 kPa | 897.71 | 889.73 | 881.7 | 873.95
34550 kPa | 899.05 | 891.14 | 883.17 | 875.49
36580 kPa | 900.38 | 892.52 | 884.63 | 877.05
38600 kPa | 901.69 | 893.9 | 886.04 | 878.53
39620 kPa | 902.33 | 894.55 | 886.76 | 879.31

Details | refractive index
[2] | 1.4172

CCCCCCCC [octane]
mass density [kg/m3], [1]
Details | 298.15 K | 308.15 K | 318.15 K | 328.15 K
100 kPa | 698.64 | 690.43 | 682.47 | 674.53
2130 kPa | 700.14 | 692.18 | 684.48 | 676.49
4150 kPa | 701.87 | 694 | 686.45 | 678.56
6180 kPa | 703.56 | 695.79 | 688.29 | 680.59
8210 kPa | 705.17 | 697.53 | 690.17 | 682.57
10230 kPa | 706.78 | 699.24 | 691.97 | 684.51
11250 kPa | 707.58 | 700.07 | 692.85 | 685.44
12260 kPa | 708.37 | 700.88 | 693.77 | 686.38
14290 kPa | 709.9 | 702.55 | 695.49 | 688.23
16310 kPa | 711.41 | 704.13 | 697.2 | 690.03
18340 kPa | 712.9 | 705.71 | 698.86 | 691.76
20370 kPa | 714.36 | 707.23 | 700.47 | 693.5
22390 kPa | 715.78 | 708.76 | 702.07 | 695.17
24420 kPa | 717.18 | 710.22 | 703.61 | 696.82
26450 kPa | 718.56 | 711.66 | 705.13 | 698.41
28470 kPa | 719.9 | 713.09 | 706.66 | 699.98
29490 kPa | 720.57 | 713.77 | 707.38 | 700.75
30500 kPa | 721.22 | 714.47 | 708.13 | 701.53
32530 kPa | 722.53 | 715.84 | 709.54 | 703.01
34550 kPa | 723.82 | 717.18 | 710.96 | 704.5
36580 kPa | 725.06 | 718.5 | 712.33 | 705.96
38600 kPa | 726.32 | 719.82 | 713.68 | 707.36
39620 kPa | 726.94 | 720.45 | 714.38 | 708.06

Details | refractive index
[2] | 1.395
